Data published in US6610703B1, “Method for treatment of glycolipid storage diseases” (G.D. Searle & Co., priority 1998, dated 2003).
Each block holds one compound with its values, some of them ahead of it.

What was measured:
glycolipid biosynthesis = conditions: according to U.S. Pat. No. 5,472,969, cited from earlier work; for dose required / activity against glycolipid biosynthesis: unit not given
[1] = Organ distribution of radiolabelled compound in mouse after oral gavage; type: in vivo; conditions: for % recovered radioactivity, Brain / % recovered radioactivity, Liver: normal mouse, gavage; for distribution in mouse liver (deposition and clearance): oral gavage, 30, 60 and 90 minutes (FIG. 10)
Procedure: Mouse body fluids and organs were collected for different times after gavage with radiolabelled compound. Radioactivity in each sample was determined and expressed as a percentage of radio-activity recovered. Solid bars, NN-DNJ, hatched bars, NB-DNJ.
The radioactivity recovered (%) is plotted against N-alkyl chain length (C4 to C18) for 30 minutes (clear bars), 60 minutes (shaded bars) and 90 minutes (filled, black bars). […] Short chain compounds (C4-C6) are rapidly cleared in a time-dependent manner. […] The C12 to C18 analogs show the reverse trend, i.e., reduced appearance in the liver but this increases with time.
The radioactivity recovered (%) is plotted against N-alkyl chain length (C4 to C18) for 30 minutes (clear bars), 60 minutes (shaded bars) and 90 minutes (filled, black bars).
FIG. 12 is a series of four bar charts, A, B, C and D, in which radioactivity (cpm) found in the liver is plotted against time post gavage in hours (h) with four different N-alkyl analogs of deoxynojirimycin (DNJ). The four analogs shown are:; FIG. 12A, N-butyl(C4); FIG. 12B, N-nonyl (C9); FIG. 12C, N-dodecyl(C12); FIG. 12D, N-cis-13-octadecenyl (C18).
FIG. 13 is a series of four bar charts, A, B, C and D, in which radioactivity (cpm) found in the brain is plotted against time post gavage in hours (h) with the same analog compounds as in FIG. 12. The four analogs shown are: FIG. 13A, N-butyl (C4); FIG. 13B, N-nonyl (C9); FIG. 13C, N-dodecyl (C12); FIG. 13D, N-cis-13-octadecenyl (C18).
Further evidence that longer alkyl chains are taken up much better has been obtained by in vivo studies with mouse.

Serum Protein = assay: Imino sugar (N-alkyl DNJ) binding to serum protein; type: in vitro ADME; conditions: protein bound versus non-bound radioactivity (FIG. 14)
From the text: The percentage compound radioactivity is plotted against N-alkyl chain length (C4 to C18) with the protein bound percentage shown by open circles and the non-bound percentage shown by filled circles. […] Short chain compounds (C4-C6) bind poorly but those larger than C10 are almost completely bound to protein.

[2] = system: CHO, MDBK and HepG2 cells; assay: Cell-associated radioactivity (uptake) of radiolabelled compound in cultured cells; type: in vitro ADME; conditions: MDBK and HepG2, incubated up to 24 hours
Hepatitis B virus (HBV) = conditions: Block et al., Nature Medicine 1998; cited from earlier work
[3] = system: human myeloid (HL-60) cells; assay: Inhibition of glycolipid biosynthesis in HL-60 cells (radiolabelled palmitic acid, TLC, scanning densitometry); type: cell-based; conditions: for times more sensitive HL-60 cells than CHO cells: HL-60 versus CHO cells
Procedure: Cells were cultured for four days in the presence of radiolabelled palmitic acid and the following concentrations of compound:
After extraction the radioactively labelled glycolipids were separated by TLC and visualized by radioautography.
Chinese Hamster Ovary (CHO) cells and human myeloid (HL-60) cells grown in the presence of varying concentrations of inhibitor in addition to a precursor (radiolabelled palmitic acid) of glycolipid biosynthesis were treated with solvents to extract the glycolipids by the procedure described by Platt et al., J. Biol. Chem. 269, 8362-8365 (1994).
The radiolabelled lipids were separated by TLC (FIG. 1) and bands corresponding to glucosylceramide and lactosyl-ceramide were quantitated by scanning densitometry to estimate the reduction in glycolipid biosynthesis.

[4] = molecular target: T1, HL-60 cell ceramide glucosyltransferase (Homo sapiens, UniProt Q16739); assay: In vitro inhibition of HL-60 cell ceramide glucosyltransferase activity; type: biochemical; conditions: C4 to C18 series (FIG. 8)
T1 construct: endogenous in cells; host or cells: HL-60 (human myeloid) cells
T1 sequence (Q16739 1-394): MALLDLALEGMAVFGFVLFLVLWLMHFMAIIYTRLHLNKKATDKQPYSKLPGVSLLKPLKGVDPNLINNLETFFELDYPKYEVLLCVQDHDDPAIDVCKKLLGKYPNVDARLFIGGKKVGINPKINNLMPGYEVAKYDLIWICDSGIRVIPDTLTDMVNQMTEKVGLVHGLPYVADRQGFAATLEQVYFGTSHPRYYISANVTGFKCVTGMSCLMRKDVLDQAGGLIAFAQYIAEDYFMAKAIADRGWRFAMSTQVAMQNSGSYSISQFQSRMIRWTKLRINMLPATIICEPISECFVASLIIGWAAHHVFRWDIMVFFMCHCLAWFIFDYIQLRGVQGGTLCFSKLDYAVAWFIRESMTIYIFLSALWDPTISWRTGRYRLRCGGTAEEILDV

Structure (SMILES): CCCCCCN1C[C@H](O)[C@@H](O)[C@H](O)[C@H]1CO [N-hexyl derivative of DNJ]
- dose required for activity against glycolipid biosynthesis (glycolipid biosynthesis): 0.2 mg/mL

- deposition in the liver ([1]; mouse, 24 h post gavage (FIG. 12)): significant deposition
Structure (SMILES): CCCC/C=C\CCCCCCCCCCCCN1C[C@H](O)[C@@H](O)[C@H](O)[C@H]1CO [C18]

Structure (SMILES): CCCCCCCCN1CC(O)C(O)C(O)C1CO (stereo not drawn) [C8]
- binding to serum protein (Serum Protein): favor equally, protein and solution phase

Structure (SMILES): CN1C[C@H](O)[C@@H](O)[C@H](O)[C@H]1CO [N-methyl analog]
- dose required / activity against glycolipid biosynthesis (glycolipid biosynthesis): inactive

Structure (SMILES): CCCCCCCCCN1C[C@H](O)[C@@H](O)[C@H](O)[C@H]1CO [N-nonyl-DNJ, N-nonyl-1.5-dideoxy-1,5-imino-D-glucitol]
- increase of cell-associated radioactivity versus N-butyl-DNJ [2]: 3.5-5 fold
- inhibition of Hepatitis B virus (Hepatitis B virus (HBV)): effective as an inhibitor
- binding to serum protein (Serum Protein): favor equally, protein and solution phase
- times more sensitive HL-60 cells than CHO cells [3]: 100 times
- % recovered radioactivity, Brain ([1]; 30 min): 0.4%
- % recovered radioactivity, Liver ([1]; 30 min): 27.1%
- % recovered radioactivity, Brain ([1]; 60 min): 0.3%
- % recovered radioactivity, Liver ([1]; 60 min): 12.6%
- % recovered radioactivity, Brain ([1]; 90 min): 0.4%
- % recovered radioactivity, Liver ([1]; 90 min): 13.5%
- distribution in mouse liver (deposition and clearance) [1]: increased deposition and slower clearance

- time after which the majority of radioactivity is found in the liver ([1]; mouse, post gavage (FIG. 12)): 1.5 h
- % recovered radioactivity, Brain ([1]; 30 min): 0.2%
- % recovered radioactivity, Liver ([1]; 30 min): 8.5%
- % recovered radioactivity, Brain ([1]; 60 min): 0.1%
- % recovered radioactivity, Liver ([1]; 60 min): 2.8%
- % recovered radioactivity, Brain ([1]; 90 min): 0.03%
- % recovered radioactivity, Liver ([1]; 90 min): 0.9%
Structure (SMILES): CCCCN1C[C@H](O)[C@@H](O)[C@H](O)[C@H]1CO [N-butyl-DNJ, N-butyldeoxynojirimycin, reference compound]
- dose required / activity against glycolipid biosynthesis (glycolipid biosynthesis): 0.01-0.1
- times more sensitive HL-60 cells than CHO cells [3]: more than 10 times

- inhibition of ceramide glucosyltransferase versus N-alkyl chain length [4]: optimal
Structure (SMILES): CCCCCCCCCCN1C[C@H](O)[C@@H](O)[C@H](O)[C@H]1CO [N-decyl-DNJ]
- inhibition at times lower concentrations than N-butyl-DNJ ([3]; HL-60 cell-based assay): 50 times
- distribution in mouse liver (deposition and clearance) [1]: increased deposition and slower clearance
